Here are results for 22 compounds from patent publication US20260092057A1, “BCL-XL/BCL-2 DEGRADERS AND USES THEREOF” (Kymera Therapeutics, Inc., priority 2022, published 2026).

Assay [1] relates to MOLT-4 cells. The assay is described as follows: CTG (CellTiter-Glo) cell viability assay, MOLT-4. As to conditions: Homo sapiens, MOLT-4, 72 h, MOLT-4, 3 day; read-out: CTG Cell Viability Assay - MOLT-4 3 day: Average external-IC50. The format is cell-based. The procedure:
(§1) Compound-mediated viability effect on MOLT-4 and Caki-2 was quantitatively determined using the CellTiter-Glo® Luminescent Cell Viability Assay kit from Promega (Catalog number G7570) following manufacturer's recommended procedures. Briefly, MOLT-4 and Caki-2 cells were seeded into 384 well plates (Grenier Bio-One, Catalog number 781080) with a density of 10,000 cells per well. Compounds were then added to the assay plate with final top concentration of 10 µM and 1:3 dilution series with total of 9 doses. The final DMSO concentration is normalized to 0.2%. The assay plates were incubated at 37° C. for 3 days under 5% CO2. Then the assay plate was equilibrated at room temperature for 10 minutes. To determine cell viability, 30 uL CellTiter Glo reagent was added to each well and the assay plate was centrifuged at 1000 rpm for 30 second, incubated at room temperature for 10 min, and analyzed by detecting the luminescence using a multimode plate reader (EnVision 2105, PerkinElmer). The data was then analyzed by software Prism 7.0 from GraphPad and the dose response curves are fit using a three-parameter logistic equation to calculate IC50.
(§2) The letter codes for MOLT-4 IC50 include: A (<0.1 μM); B (0.1-1.0 μM); C (>1.0-3.0 μM); and D (>3.0 μM). The letter codes for Caki-2 IC50 include: A (<5 μM); B (5-10 μM); C (>10-30.0 μM); and D (>30.0 μM).
On the technique in general: ATP-based viability assays read luminescence as a measure of living cells.

Assay [2] deals with Caki-2 cells. The assay is described as follows: CTG (CellTiter-Glo) cell viability assay, Caki-2. It counts as cell-based. To be noted: Homo sapiens, CAKI-2, 72 h, Caki-2, 3-day; read-out: CTG Chempartner/PHA- Caki-2 3-day: Average external-IC50. The procedure:
as §1, §2

The structures appear in SMILES notation. A value given as a limit tells only on which side of the number the result lay.

`Cc1ncsc1-c1ccc([C@H](C)NC(=O)[C@@H]2C[C@@H](O)CN2C(=O)[C@@H](NC(=O)CCCCCC(=O)NCCCNc2ccc(S(=O)(=O)NC(=O)c3ccc(N4CCN(Cc5ccccc5-c5ccc(Cl)cc5)CC4)cc3Oc3cnc4[nH]ccc4c3)cc2S(=O)(=O)C(F)(F)F)C(C)(C)C)cc1` [I-62]: the IC50 in assay [1] is > 3 µM; in assay [2], > 30 µM.

Take `Cc1ncsc1-c1ccc([C@H](C)NC(=O)[C@@H]2C[C@@H](O)CN2C(=O)[C@@H](NC(=O)CCCCCN(C)CCCNc2ccc(S(=O)(=O)NC(=O)c3ccc(N4CCC([C@@H](O)c5ccccc5-c5ccc(Cl)cc5)CC4)cc3Oc3cnc4[nH]ccc4c3)cc2S(=O)(=O)C(F)(F)F)C(C)(C)C)cc1` [I-66]: the IC50 was > 3 µM in assay [1] and > 30 µM in assay [2].

Turning to `Cc1ncsc1-c1ccc([C@H](C)NC(=O)[C@@H]2C[C@@H](O)CN2C(=O)[C@@H](NC(=O)CCCCCC(=O)N(C)CCCNc2ccc(S(=O)(=O)NC(=O)c3ccc(N4CCC([C@@H](O)c5ccccc5-c5ccc(Cl)cc5)CC4)cc3Oc3cnc4[nH]ccc4c3)cc2S(=O)(=O)C(F)(F)F)C(C)(C)C)cc1` [I-68], the IC50 in assay [1] is > 3 µM; in assay [2] it was > 30 µM.

As for `Cc1ncsc1-c1ccc([C@H](C)NC(=O)[C@@H]2C[C@@H](O)CN2C(=O)[C@@H](NC(=O)CCCCCC(=O)NCC[C@H](CSc2ccccc2)Nc2ccc(S(=O)(=O)NC(=O)c3ccc(N4CCC([C@H](O)c5ccccc5-c5ccc(Cl)cc5)CC4)cc3)cc2S(=O)(=O)C(F)(F)F)C(C)(C)C)cc1` [I-70], the IC50 in assay [1] is > 3 µM; in assay [2], > 30 µM.

For `Cc1ncsc1-c1ccc([C@H](C)NC(=O)[C@@H]2C[C@@H](O)CN2C(=O)[C@@H](NC(=O)CCCCCC(=O)N(C)CC[C@H](CSc2ccccc2)Nc2ccc(S(=O)(=O)NC(=O)c3ccc(N4CCC(C(O)c5ccccc5-c5ccc(Cl)cc5)CC4)cc3)cc2S(=O)(=O)C(F)(F)F)C(C)(C)C)cc1` (some centres unmarked) [I-71], the values for the IC50 in assay [1] and in assay [2] were 1 to 3 µM and 10 to 30 µM, respectively.

On to `Cc1ncsc1-c1ccc([C@H](C)NC(=O)[C@@H]2C[C@@H](O)CN2C(=O)[C@@H](NC(=O)CCCCCC(=O)N(C)CC[C@H](CSc2ccccc2)Nc2ccc(S(=O)(=O)NC(=O)c3ccc(N4CCC([C@@H](O)c5ccccc5-c5ccc(Cl)cc5)CC4)cc3)cc2S(=O)(=O)C(F)(F)F)C(C)(C)C)cc1` [I-72], for which the results for the IC50 in assay [1] and in assay [2] were 1 to 3 µM and 10 to 30 µM, respectively.

Turning to `Cc1ncsc1-c1ccc([C@H](C)NC(=O)[C@@H]2C[C@@H](O)CN2C(=O)[C@@H](NC(=O)CCCCCC(=O)N(C)CC[C@H](CSc2ccccc2)Nc2ccc(S(=O)(=O)NC(=O)c3ccc(N4CCC([C@H](O)c5ccccc5-c5ccc(Cl)cc5)CC4)cc3)cc2S(=O)(=O)C(F)(F)F)C(C)(C)C)cc1` [I-73], the IC50 in assay [1] is > 3 µM; in assay [2], > 30 µM.

For `Cc1ncsc1-c1ccc([C@H](C)NC(=O)[C@@H]2C[C@@H](O)CN2C(=O)[C@@H](NC(=O)CCCCCN2CCC(CNc3ccc(S(=O)(=O)NC(=O)c4ccc(N5CCN(CC6=C(c7ccc(Cl)cc7)CC(C)(C)CC6)CC5)cc4Oc4cnc5[nH]ccc5c4)cc3S(=O)(=O)C(F)(F)F)CC2)C(C)(C)C)cc1` [I-75], the IC50 in assay [1] was 0.1 to 1 µM; in assay [2], > 30 µM.

For `Cc1ncsc1-c1ccc([C@H](C)NC(=O)[C@@H]2C[C@@H](O)CN2C(=O)[C@@H](NC(=O)CCCCCC(=O)NCCCNc2ccc(S(=O)(=O)NC(=O)c3ccc(N4CCN(CC5=C(c6ccc(Cl)cc6)CC(C)(C)CC5)CC4)cc3Oc3cnc4[nH]ccc4c3)cc2S(=O)(=O)C(F)(F)F)C(C)(C)C)cc1` [I-76], the results for the IC50 in assay [1] and in assay [2] were > 3 µM and > 30 µM, respectively.

For `Cc1ncsc1-c1ccc([C@H](C)NC(=O)[C@@H]2C[C@@H](O)CN2C(=O)[C@@H](NC(=O)CCCCCN(C)CCNc2ccc(S(=O)(=O)NC(=O)c3ccc(N4CCN(CC5=C(c6ccc(Cl)cc6)CC(C)(C)CC5)CC4)cc3Oc3cnc4[nH]ccc4c3)cc2S(=O)(=O)C(F)(F)F)C(C)(C)C)cc1` [I-77], the IC50 in assay [1] was in the range of 0.1 to 1 µM; in assay [2], 10 to 30 µM.

Take `Cc1ncsc1-c1ccc([C@H](C)NC(=O)[C@@H]2C[C@@H](O)CN2C(=O)[C@@H](NC(=O)CCCC(=O)N2CCN(CCCNc3ccc(S(=O)(=O)NC(=O)c4ccc(N5CCN(CC6=C(c7ccc(Cl)cc7)CC(C)(C)CC6)CC5)cc4Oc4cnc5[nH]ccc5c4)cc3S(=O)(=O)C(F)(F)F)CC2)C(C)(C)C)cc1` [I-78]: the results for the IC50 in assay [1] and in assay [2] were > 3 µM and > 30 µM, respectively.

Take `Cc1ncsc1-c1ccc([C@H](C)NC(=O)[C@@H]2C[C@@H](O)CN2C(=O)[C@@H](NC(=O)CCC(=O)N2CCN(CCCNc3ccc(S(=O)(=O)NC(=O)c4ccc(N5CCN(CC6=C(c7ccc(Cl)cc7)CC(C)(C)CC6)CC5)cc4Oc4cnc5[nH]ccc5c4)cc3S(=O)(=O)C(F)(F)F)CC2)C(C)(C)C)cc1` [I-79]: the values for the IC50 in assay [1] and in assay [2] were > 3 µM and > 30 µM, respectively.

Take `Cc1ncsc1-c1ccc([C@H](C)NC(=O)[C@@H]2C[C@@H](O)CN2C(=O)[C@@H](NC(=O)CCCCCNc2ccc(S(=O)(=O)NC(=O)c3ccc(N4CCN(CC5=C(c6ccc(Cl)cc6)CC(C)(C)CC5)CC4)cc3Oc3cnc4[nH]ccc4c3)cc2S(=O)(=O)C(F)(F)F)C(C)(C)C)cc1` [I-80]: the IC50 in assay [1] is > 3 µM; in assay [2], > 30 µM.

`Cc1ncsc1-c1ccc([C@H](C)NC(=O)[C@@H]2C[C@@H](O)CN2C(=O)[C@@H](NC(=O)CCCCCC(=O)NCC[C@H](CSc2ccccc2)Nc2ccc(S(=O)(=O)NC(=O)c3ccc(N4CCC([C@@H](O)c5ccccc5-c5ccc(Cl)cc5)CC4)cc3)cc2S(=O)(=O)C(F)(F)F)C(C)(C)C)cc1` [I-82]: the IC50 in assay [1] lay in the range of 1 to 3 µM; in assay [2], 10 to 30 µM.

With `Cc1ncsc1-c1ccc([C@H](C)NC(=O)[C@@H]2C[C@@H](O)CN2C(=O)[C@@H](NC(=O)CCCCCC(=O)N2CCC(NCCCNc3ccc(S(=O)(=O)NC(=O)c4ccc(N5CCN(CC6=C(c7ccc(Cl)cc7)CC(C)(C)CC6)CC5)cc4Oc4cnc5[nH]ccc5c4)cc3S(=O)(=O)C(F)(F)F)CC2)C(C)(C)C)cc1` [I-87], the results for the IC50 in assay [1] and in assay [2] were > 3 µM and > 30 µM, respectively.

With `Cc1ncsc1-c1ccc([C@H](C)NC(=O)[C@@H]2C[C@@H](O)CN2C(=O)[C@@H](NC(=O)CCCCCC(=O)N2CCN(CC[C@H](CSc3ccccc3)Nc3ccc(S(=O)(=O)NC(=O)c4ccc(N5CCC6(CC5)CC(N5CCC[C@H]5c5ccccc5C5CC5)C6)cc4)cc3S(=O)(=O)C(F)(F)F)CC2)C(C)(C)C)cc1` [I-88], the IC50 was 1 to 3 µM in assay [1] and > 30 µM in assay [2].

`Cc1ncsc1-c1ccc([C@H](C)NC(=O)[C@@H]2C[C@@H](O)CN2C(=O)[C@@H](NC(=O)C2CCN(c3ccc(N(C)CCCNc4ccc(S(=O)(=O)NC(=O)c5ccc(N6CCN(CC7=C(c8ccc(Cl)cc8)CC(C)(C)CC7)CC6)cc5Oc5cnc6[nH]ccc6c5)cc4S(=O)(=O)C(F)(F)F)cc3)CC2)C(C)(C)C)cc1` [I-89]: the IC50 in assay [1] was > 3 µM; in assay [2] it was > 30 µM.

For `Cc1ncsc1-c1ccc([C@H](C)NC(=O)[C@@H]2C[C@@H](O)CN2C(=O)[C@@H](NC(=O)C2CCN(C3CCN(CCCNc4ccc(S(=O)(=O)NC(=O)c5ccc(N6CCN(CC7=C(c8ccc(Cl)cc8)CC(C)(C)CC7)CC6)cc5Oc5cnc6[nH]ccc6c5)cc4S(=O)(=O)C(F)(F)F)CC3)CC2)C(C)(C)C)cc1` [I-90], the IC50 in assay [1] was > 3 µM; in assay [2], > 30 µM.

Consider `Cc1ncsc1-c1ccc([C@H](C)NC(=O)[C@@H]2C[C@@H](N)CN2C(=O)[C@@H](NC(=O)C2CCN(CCCNc3ccc(S(=O)(=O)NC(=O)c4ccc(N5CCC([C@H](O)c6ccccc6-c6ccc(Cl)cc6)CC5)cc4Oc4cnc5[nH]ccc5c4)cc3S(=O)(=O)C(F)(F)F)CC2)C(C)(C)C)cc1` [I-92], for which the IC50 in assay [1] is > 3 µM; in assay [2], > 30 µM.

For `Cc1ncsc1-c1ccc([C@H](C)NC(=O)[C@@H]2C[C@@H](O)CN2C(=O)[C@@H](NC(=O)CCCCCCC(=O)N2CCN(C[C@]3(C)CCC(c4ccc(Cl)cc4)=C(CN4CCN(c5ccc(C(=O)NS(=O)(=O)c6ccc(NCCN7CCOCC7)c(S(=O)(=O)C(F)(F)F)c6)c(Oc6cnc7[nH]ccc7c6)c5)CC4)C3)CC2)C(C)(C)C)cc1` [I-93], the IC50 in assay [1] was 1 to 3 µM; in assay [2], > 30 µM.

As for `Cc1ncsc1-c1ccc([C@H](C)NC(=O)[C@@H]2C[C@@H](O)CN2C(=O)[C@@H](NC(=O)CCCCCC(=O)N[C@@H]2CCN(CCCNc3ccc(S(=O)(=O)NC(=O)c4ccc(N5CCN(CC6=C(c7ccc(Cl)cc7)CC(C)(C)CC6)CC5)cc4Oc4cnc5[nH]ccc5c4)cc3S(=O)(=O)C(F)(F)F)C2)C(C)(C)C)cc1` [I-95], the results for the IC50 in assay [1] and in assay [2] were > 3 µM and > 30 µM, respectively.

`Cc1ncsc1-c1ccc([C@H](C)NC(=O)[C@@H]2C[C@@H](O)CN2C(=O)[C@@H](NC(=O)CCCCCC(=O)N[C@H]2CCN(CCCNc3ccc(S(=O)(=O)NC(=O)c4ccc(N5CCN(CC6=C(c7ccc(Cl)cc7)CC(C)(C)CC6)CC5)cc4Oc4cnc5[nH]ccc5c4)cc3S(=O)(=O)C(F)(F)F)C2)C(C)(C)C)cc1` [I-96]: the IC50 in assay [1] is 0.1 to 1 µM; in assay [2], > 30 µM.
